According to patent US12291519B2, “2-hydroxycycloalkane-1-carbamoyl” (Idorsia Pharmaceuticals Ltd, priority 2019, dated 2025):

Experiments:
[1] = biological target: human Gal-1 (hGal-1); experiment: Competitive binding assay: biotinylated hGal-1 binding to microplate-adsorbed asialofetuin (ASF); conditions: Activity on hGal-1; binding of biotinylated hGal-1 to ASF-coated plates; mean values
Summary of the method: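 Biotinylated hGal-1 (300–1000 ng/mL; optionally a cysteine-free all-serine variant) incubated 3 h at 4 °C with compound on asialofetuin-coated plates, then streptavidin-peroxidase 1 h at 4 °C. ABTS readout at OD 410 nm after 30–45 min; IC50 given as mean of several runs.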

[2] = biological target: human Gal-3 (hGal-3) (Homo sapiens (Human), UniProt P17931); experiment: Competitive binding assay: biotinylated hGal-3 binding to microplate-adsorbed asialofetuin (ASF); conditions: Activity on hGal-3; binding of biotinylated hGal-3 to ASF-coated plates; mean values
Sequence of human Gal-3 (hGal-3) (P17931 whole entry): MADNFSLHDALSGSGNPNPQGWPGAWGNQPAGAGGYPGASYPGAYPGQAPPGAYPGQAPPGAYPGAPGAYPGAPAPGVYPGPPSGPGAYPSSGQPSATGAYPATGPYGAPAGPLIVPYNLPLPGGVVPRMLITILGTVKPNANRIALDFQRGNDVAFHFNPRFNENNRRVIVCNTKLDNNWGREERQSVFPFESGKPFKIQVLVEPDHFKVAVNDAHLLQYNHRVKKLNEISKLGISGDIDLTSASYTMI
Summary of the method: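 Serially diluted compounds competed with biotinylated human Gal-3 for binding to plate-adsorbed asialofetuin over 3 h at 4 °C. Bound Gal-3 was detected with streptavidin-peroxidase (80 ng/mL, 1 h, 4 °C) and ABTS substrate. IC50 values are means of several measurements.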

Sequence of human Gal-1 (hGal-1) (P09382 2-135 limits assumed): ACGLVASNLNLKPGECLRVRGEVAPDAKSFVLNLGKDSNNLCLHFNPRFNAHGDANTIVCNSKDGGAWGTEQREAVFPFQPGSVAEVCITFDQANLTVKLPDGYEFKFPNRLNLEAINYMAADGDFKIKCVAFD

Row | IC50 [1] [nM] | IC50 [2] [nM] | Compound
1 | 751 | 50 | CO[C@@H]1[C@@H](n2cc(-c3cc(F)cc(Br)c3)nn2)[C@@H](O)[C@@H](CO)O[C@H]1C(=O)N(c1cc(C)cc(C#N)c1)[C@H]1CCCC[C@@H]1O [Example 146, (2R,3R,4S,5R,6R)-4-(4-(3-bromo-5-fluorophenyl)-1H-1,2,3-triazol-1-yl)-N-(3-cyano-5-methylphenyl)-5-hydroxy-N-((1S,2S)-2-hydroxycyclohexyl)-6-(hydroxymethyl)-3-methoxytetrahydro-2H-pyran-2-carboxamide]
2 | 530 | 71 | CO[C@@H]1[C@@H](n2cc(-c3cc(F)cc(Br)c3)nn2)[C@@H](O)[C@@H](CO)O[C@H]1C(=O)N(c1cc(F)cc(Cl)c1)[C@H]1CCCC[C@@H]1O [Example 147, (2R,3R,4S,5R,6R)-4-(4-(3-bromo-5-fluorophenyl)-1H-1,2,3-triazol-1-yl)-N-(3-chloro-5-fluorophenyl)-5-hydroxy-N-((1S,2S)-2-hydroxycyclohexyl)-6-(hydroxymethyl)-3-methoxytetrahydro-2H-pyran-2-carboxamide]
3 | 343 | 81 | CO[C@@H]1[C@@H](n2cc(-c3cc(F)cc(Br)c3)nn2)[C@@H](O)[C@@H](CO)O[C@H]1C(=O)N(c1cccc(C#N)c1)[C@H]1CCCC[C@@H]1O [Example 148, (2R,3R,4S,5R,6R)-4-(4-(3-bromo-5-fluorophenyl)-1H-1,2,3-triazol-1-yl)-N-(3-cyanophenyl)-5-hydroxy-N-((1S,2S)-2-hydroxycyclohexyl)-6-(hydroxymethyl)-3-methoxytetrahydro-2H-pyran-2-carboxamide]
4 | 707 | 85 | CO[C@@H]1[C@@H](n2cc(-c3cc(F)cc(Br)c3)nn2)[C@@H](O)[C@@H](CO)O[C@H]1C(=O)N(c1cccc(Cl)c1)[C@H]1CCCC[C@@H]1O [Example 149, (2R,3R,4S,5R,6R)-4-(4-(3-bromo-5-fluorophenyl)-1H-1,2,3-triazol-1-yl)-N-(3-chlorophenyl)-5-hydroxy-N-((1S,2S)-2-hydroxycyclohexyl)-6-(hydroxymethyl)-3-methoxytetrahydro-2H-pyran-2-carboxamide]
5 | 671 | 62 | COc1cc(C#N)cc(N(C(=O)[C@@H]2O[C@H](CO)[C@H](O)[C@H](n3cc(-c4cc(F)cc(Br)c4)nn3)[C@H]2OC)[C@H]2CCCC[C@@H]2O)c1 [Example 150, (2R,3R,4S,5R,6R)-4-(4-(3-bromo-5-fluorophenyl)-1H-1,2,3-triazol-1-yl)-N-(3-cyano-5-methoxyphenyl)-5-hydroxy-N-((1S,2S)-2-hydroxycyclohexyl)-6-(hydroxymethyl)-3-methoxytetrahydro-2H-pyran-2-carboxamide]
6 | 1130 | 37 | CO[C@@H]1[C@@H](n2cc(-c3cc(F)c(Br)c(F)c3)nn2)[C@@H](O)[C@@H](CO)O[C@H]1C(=O)N(c1cc(Cl)cc(Cl)c1)[C@H]1CCCC[C@@H]1O [Example 151, (2R,3R,4S,5R,6R)-4-(4-(4-bromo-3,5-difluorophenyl)-1H-1,2,3-triazol-1-yl)-N-(3,5-dichlorophenyl)-5-hydroxy-N-((1S,2S)-2-hydroxycyclohexyl)-6-(hydroxymethyl)-3-methoxytetrahydro-2H-pyran-2-carboxamide]
7 | 3140 | 62 | CO[C@@H]1[C@@H](n2cc(-c3cc(F)c(Br)c(F)c3)nn2)[C@@H](O)[C@@H](CO)O[C@H]1C(=O)N(c1ccc(F)c(F)c1)[C@H]1CCCC[C@@H]1O [Example 152, (2R,3R,4S,5R,6R)-4-(4-(4-bromo-3,5-difluorophenyl)-1H-1,2,3-triazol-1-yl)-N-(3,4-difluorophenyl)-5-hydroxy-N-((1S,2S)-2-hydroxycyclohexyl)-6-(hydroxymethyl)-3-methoxytetrahydro-2H-pyran-2-carboxamide]
8 | 1080 | 25 | CO[C@@H]1[C@@H](n2cc(-c3cc(F)c(Br)c(F)c3)nn2)[C@@H](O)[C@@H](CO)O[C@H]1C(=O)N(c1ccc2scnc2c1)[C@H]1CCCC[C@@H]1O [Example 153, (2R,3R,4S,5R,6R)-N-(benzo[d]thiazol-5-yl)-4-(4-(4-bromo-3,5-difluorophenyl)-1H-1,2,3-triazol-1-yl)-5-hydroxy-N-((1S,2S)-2-hydroxycyclohexyl)-6-(hydroxymethyl)-3-methoxytetrahydro-2H-pyran-2-carboxamide]
9 | 957 | 23 | CO[C@@H]1[C@@H](n2cc(-c3cc(F)c(Br)c(F)c3)nn2)[C@@H](O)[C@@H](CO)O[C@H]1C(=O)N(c1cc(Cl)cc(C#N)c1)[C@H]1CCCC[C@@H]1O [Example 154, (2R,3R,4S,5R,6R)-4-(4-(4-bromo-3,5-difluorophenyl)-1H-1,2,3-triazol-1-yl)-N-(3-chloro-5-cyanophenyl)-5-hydroxy-N-((1S,2S)-2-hydroxycyclohexyl)-6-(hydroxymethyl)-3-methoxytetrahydro-2H-pyran-2-carboxamide]
10 | 1510 | 24 | CO[C@@H]1[C@@H](n2cc(-c3cc(F)c(Br)c(F)c3)nn2)[C@@H](O)[C@@H](CO)O[C@H]1C(=O)N(c1cc(F)cc(C#N)c1)[C@H]1CCCC[C@@H]1O [Example 155, (2R,3R,4S,5R,6R)-4-(4-(4-bromo-3,5-difluorophenyl)-1H-1,2,3-triazol-1-yl)-N-(3-cyano-5-fluorophenyl)-5-hydroxy-N-((1S,2S)-2-hydroxycyclohexyl)-6-(hydroxymethyl)-3-methoxytetrahydro-2H-pyran-2-carboxamide]
11 | 798 | 15 | CO[C@@H]1[C@@H](n2cc(-c3cc(F)c(C)c(F)c3)nn2)[C@@H](O)[C@@H](CO)O[C@H]1C(=O)N(c1cc(Cl)cc(Cl)c1)[C@H]1CCCC[C@@H]1O [Example 158, (2R,3R,4S,5R,6R)-N-(3,5-dichlorophenyl)-4-(4-(3,5-difluoro-4-methylphenyl)-1H-1,2,3-triazol-1-yl)-5-hydroxy-N-((1S,2S)-2-hydroxycyclohexyl)-6-(hydroxymethyl)-3-methoxytetrahydro-2H-pyran-2-carboxamide]
12 | 528 | 12 | CO[C@@H]1[C@@H](n2cc(-c3cc(F)c(C)c(F)c3)nn2)[C@@H](O)[C@@H](CO)O[C@H]1C(=O)N(c1cc(Cl)cc(C#N)c1)[C@H]1CCCC[C@@H]1O [Example 159, (2R,3R,4S,5R,6R)-N-(3-chloro-5-cyanophenyl)-4-(4-(3,5-difluoro-4-methylphenyl)-1H-1,2,3-triazol-1-yl)-5-hydroxy-N-((1S,2S)-2-hydroxycyclohexyl)-6-(hydroxymethyl)-3-methoxytetrahydro-2H-pyran-2-carboxamide]
13 | 2170 | 25 | CO[C@@H]1[C@@H](n2cc(-c3cc(F)c(C)c(F)c3)nn2)[C@@H](O)[C@@H](CO)O[C@H]1C(=O)N(c1cc(F)cc(C#N)c1)[C@H]1CCCC[C@@H]1O [Example 161, (2R,3R,4S,5R,6R)-N-(3-cyano-5-fluorophenyl)-4-(4-(3,5-difluoro-4-methylphenyl)-1H-1,2,3-triazol-1-yl)-5-hydroxy-N-((1S,2S)-2-hydroxycyclohexyl)-6-(hydroxymethyl)-3-methoxytetrahydro-2H-pyran-2-carboxamide]
14 | 134 | 32 | CO[C@@H]1[C@@H](n2cc(-c3ccc(F)c(F)c3)nn2)[C@@H](O)[C@@H](CO)O[C@H]1C(=O)N(c1cc(Cl)cc(Cl)c1)[C@H]1CCCC[C@@H]1O [Example 162, (2R,3R,4S,5R,6R)-N-(3,5-dichlorophenyl)-4-(4-(3,4-difluorophenyl)-1H-1,2,3-triazol-1-yl)-5-hydroxy-N-((1S,2S)-2-hydroxycyclohexyl)-6-(hydroxymethyl)-3-methoxytetrahydro-2H-pyran-2-carboxamide]
15 | 1270 | 18 | CO[C@@H]1[C@@H](n2cc(-c3ccc(Br)c(F)c3)nn2)[C@@H](O)[C@@H](CO)O[C@H]1C(=O)N(c1cc(Cl)cc(Cl)c1)[C@H]1CCCC[C@@H]1O [Example 163, (2R,3R,4S,5R,6R)-4-(4-(4-bromo-3-fluorophenyl)-1H-1,2,3-triazol-1-yl)-N-(3,5-dichlorophenyl)-5-hydroxy-N-((1S,2S)-2-hydroxycyclohexyl)-6-(hydroxymethyl)-3-methoxytetrahydro-2H-pyran-2-carboxamide]
16 | 1940 | 58 | CO[C@@H]1[C@@H](n2cc(-c3ccc(Br)c(F)c3)nn2)[C@@H](O)[C@@H](CO)O[C@H]1C(=O)N(c1ccc(F)c(F)c1)[C@H]1CCCC[C@@H]1O [Example 164, (2R,3R,4S,5R,6R)-4-(4-(4-bromo-3-fluorophenyl)-1H-1,2,3-triazol-1-yl)-N-(3,4-difluorophenyl)-5-hydroxy-N-((1S,2S)-2-hydroxycyclohexyl)-6-(hydroxymethyl)-3-methoxytetrahydro-2H-pyran-2-carboxamide]
17 | 792 | 34 | CO[C@@H]1[C@@H](n2cc(-c3ccc(Br)c(F)c3)nn2)[C@@H](O)[C@@H](CO)O[C@H]1C(=O)N(c1cc(Cl)cc(C#N)c1)[C@H]1CCCC[C@@H]1O [Example 165, (2R,3R,4S,5R,6R)-4-(4-(4-bromo-3-fluorophenyl)-1H-1,2,3-triazol-1-yl)-N-(3-chloro-5-cyanophenyl)-5-hydroxy-N-((1S,2S)-2-hydroxycyclohexyl)-6-(hydroxymethyl)-3-methoxytetrahydro-2H-pyran-2-carboxamide]
18 | 1340 | 22 | CO[C@@H]1[C@@H](n2cc(-c3cc(F)c(Cl)c(Cl)c3)nn2)[C@@H](O)[C@@H](CO)O[C@H]1C(=O)N(c1cc(Cl)cc(Cl)c1)[C@H]1CCCC[C@@H]1O [Example 166, (2R,3R,4S,5R,6R)-4-(4-(3,4-dichloro-5-fluorophenyl)-1H-1,2,3-triazol-1-yl)-N-(3,5-dichlorophenyl)-5-hydroxy-N-((1S,2S)-2-hydroxycyclohexyl)-6-(hydroxymethyl)-3-methoxytetrahydro-2H-pyran-2-carboxamide]
